According to ChEMBL document CHEMBL3507680, “University of Dundee, Gates Library screen for HepG2 cell viability”:

Assay: Human HepG2 cell viability assay in 384 well format
Type: toxicity, cell-based
Parameters: dose 125 nL, time 70.5 hour; concentration not given beside the values
Details: HepG2 cells, read-out: Inhibition

Row | SMILES | cytotoxicity at 70.5 h
1 | CC(=O)N(C)c1nc(CN2CCOC(Cn3cccn3)C2)cs1 (stereo not drawn) | -11.7%
2 | O=C(NCCc1cccs1)[C@]12COC[C@H]1CN(c1ncccn1)C2 | -13.7%
3 | Cn1nc(C(=O)N2CCCC2)c(F)c1NC(=O)Cc1ccccc1 | 28.2%
4 | Cc1cccc(C(=O)N2CCSCC2)c1NC(=O)c1cccnc1 | -7.35%
5 | COCC1c2c(cnn2C)CCN1C(=O)c1ccc2c(c1)OCO2 (stereo not drawn) | 1.82%
6 | CN(C)CC(C)(C)Cn1cnc(-c2ccccc2)c1-c1ncc[nH]1 | 11.7%
7 | Cc1cc(C)cc(NCCC(=O)NCc2cccnc2N(C)C)c1 | -5.81%
8 | CCCNc1ccc(C(=O)NCCc2cccc(Cl)c2)cn1 | -4.77%
9 | Cn1nccc1C(=O)NCCN1CCC(O)(c2ccc(F)cc2)CC1 | 7.28%
10 | COC1CCCN(CCCc2cn[nH]c2)C1 (stereo not drawn) | 0.195%
11 | CN(C)C(=O)c1cnc2n1CCN(Cc1ccc3c(c1)OCO3)C2 | -7.97%
12 | COCc1cc(N(CC(F)F)C2CC2)n2ncnc2n1 | -5.91%
13 | Cc1nc(C)n(C2CCCN(C(=O)CCCn3ccnc3)C2)n1 (stereo not drawn) | 4.28%
14 | CC(C)C(C)N(C)Cc1nnc(-c2ccc(Br)s2)o1 (stereo not drawn) | -3%
15 | O=C(Cc1ccccn1)NCC1OCCc2cn(CC3CC3)nc21 (stereo not drawn) | 11.2%
16 | Cc1cccc(CN2CCC(c3nnsc3S(C)(=O)=O)CC2)n1 | -4.43%
17 | COc1ncccc1NC(=O)C1CCOCC1 | 22.9%
18 | O[C@@H]1C[C@@H](c2nc(-c3ccc(F)cc3)no2)N(C2CCOCC2)C1 | -3.33%
19 | Cc1csc(CNc2cnn(CC(F)(F)F)c2)n1 | -2.55%
20 | CCc1ccc(C(=O)N2CC[C@H](Oc3cccnc3C)[C@@H](O)CC2)cc1 | 14.4%
21 | CCc1nc(N2CCN(CCOC)CC2)c2cnn(C)c2n1 | -11.9%
22 | COC1(CNS(=O)(=O)c2ccccc2Cl)CCSC1 (stereo not drawn) | -7.26%
23 | CCCc1noc(C2CCN(C(=O)CCn3nc(C)cc3C)CC2)n1 | -7%

Row | SMILES | cytotoxicity at 70.5 h
24 | Cc1nc(C)n(CC2CCCN2Cc2nc3ccccc3c(=O)[nH]2)n1 (stereo not drawn) | -1.61%
25 | CN(CC(=O)N1CCN(c2ccccn2)CC1)c1ccc(Cl)cn1 | -17.2%
26 | CC(C)(C)c1ncc(CNCC2CN(C3CC3)CCO2)s1 (stereo not drawn) | -2.48%
27 | O=C(O)c1ccc(F)c(S(=O)(=O)N2CCOc3ccccc32)c1 | -4.17%
28 | CC(=O)Nc1ccc(Oc2cc(C)nc(C3CCCNC3)c2)cc1 (stereo not drawn) | -3.03%
29 | O=C(CC1CC1)N1CCC2(CC1)CN(CCn1cccn1)C(=O)CO2 | -4.82%
30 | Cc1cccc2c1nc(CCO)n2-c1ccc(NS(C)(=O)=O)nc1 | -8.44%
31 | NCC1CCCCN1Cc1cc(O)c2cccc(F)c2n1 (stereo not drawn) | 21.6%
32 | COCCn1cc(NC(=O)N(CCC(N)=O)Cc2ccccc2)cn1 | -14.4%
33 | COc1ccc2[nH]cc(C(=O)CNc3nccs3)c2c1 | 14.4%
34 | Cc1ccoc1C(=O)NC1CCN(CC(=O)N(C)c2ccccc2)CC1 | 18%
35 | CC(=O)N1[C@@H](C(=O)NCC2CC2)C[C@@H]2CN(Cc3ccco3)C[C@@H]21 | 0.192%
36 | C[C@@H]1CN(C2CCCCC2)CC[C@@]1(O)C1CCOCC1 | -16%
37 | O=C1CCCc2[nH]c(=O)c(C(=O)N3CCc4ccccc4C3)cc21 | 0.27%
38 | CCN(CC)c1nc(C)cc(C(=O)Nc2cnn(CC)c2)n1 | -12.1%
39 | Cc1cccc(-n2nc(CC(C)C)nc2[C@H](C)O)c1 | 16.4%
40 | Cc1ncc2c(n1)CN(CCCc1nc3ccccc3o1)CC2 | -0.537%
41 | CC(=O)N1CCc2ccc(NC(=O)c3cn(C)nn3)cc2C1 | -5.41%
42 | CCc1cc(NC2CCOCC2)n2nc(C)c(C)c2n1 | -10.6%
43 | Clc1cnccc1N1CCCC2(CCCOC2)C1 (stereo not drawn) | 1.82%
44 | Cc1ccc(CN2CCC3(CC2)CC(c2cccnc2)CO3)s1 (stereo not drawn) | 2.33%
45 | Cc1cc(CNC(=O)N2CCCN(Cc3ccccc3)CC2)no1 | -9.16%
46 | Cc1ccoc1C(=O)N1CCNCC1C(=O)NCc1ccncc1 (stereo not drawn) | 3.11%

Row | SMILES | cytotoxicity at 70.5 h
47 | Cc1nn(C)c(C)c1C1CCCN1C(=O)c1cnccn1 (stereo not drawn) | -2.94%
48 | O=C(CSc1nnc(N2CCCC2)s1)NC(=O)Nc1ccccc1 | -5.54%
49 | CCN(C)C(=O)CN1CCC(c2cc(N3CCOCC3)nc(C)n2)CC1 | -6.04%
50 | c1nc2c(c(N3CCCC(Cn4cncn4)C3)n1)CCC2 (stereo not drawn) | -7.36%
51 | O=C(Nc1cc(C2CCOCC2)[nH]n1)c1cscn1 | -7.61%
52 | CC(=O)N1N=C(c2ccccc2)OC1C(=O)NCCC1=CCCCC1 (stereo not drawn) | -0.565%
53 | COc1ccc(CNCC2CNc3ccnn3C2)cn1 (stereo not drawn) | -3.27%
54 | Cn1cnc2c1CCN(Cc1csc(-c3ccccc3)n1)C2 | 24.1%
55 | O=C(O)c1c(-c2cccnc2)ncc2c1CCN(CC1CCOC1)C2 (stereo not drawn) | 16.6%
56 | CC1CCN(CCNC(=O)c2scnc2Cl)CC1 | 18.5%
57 | Nc1c(N2CCCC2)ncnc1N1CCOCC1 | 20.6%
58 | CC(c1cccc(Cl)c1)N(C)CCS(=O)(=O)CCC(N)=O (stereo not drawn) | -0.172%
59 | Cc1nc(CN2CCCC(NCCOc3ccccc3C#N)C2)no1 (stereo not drawn) | -2.51%
60 | CC(C)S(=O)(=O)NCC1CCCN(C(=O)c2ccc(F)cc2)C1 (stereo not drawn) | 9.08%
61 | O=C(c1ccc(-n2cnnn2)cc1)N1CCCC(n2ccnc2)C1 (stereo not drawn) | -6.98%
62 | COc1cccc(NC(=O)N(CCO)C2CCc3ccccc32)c1 (stereo not drawn) | -0.598%
63 | COc1ccccc1CN1CC(O)CN(S(=O)(=O)C(C)C)CC1=O (stereo not drawn) | 16.7%
64 | Cc1ccccc1CN1CCN(C(C)c2nc(C3CC3)no2)CC1 (stereo not drawn) | 17%
65 | CNC(=O)[C@@]12CCC3(CCNCC3)[C@@H]1CN(S(C)(=O)=O)C2 | 4.08%
66 | COCC(C)NCc1ccc2[nH]c(C)c(C)c2c1 (stereo not drawn) | -7.86%
67 | COC[C@]1(O)CCN(C(=O)c2ccc(CN(C)C)o2)CC1(C)C | -12.5%
68 | COc1ccc(C(=O)N2C[C@@H](O)[C@H](NCCc3ncccc3C)C2)cc1 | -10.6%
69 | COCCN1CCC2(CCN(C(=O)c3ccc(F)cc3)CC2)C1=O | 18.4%

Row | SMILES | cytotoxicity at 70.5 h
70 | Cc1ccc(S(=O)(=O)N[C@H](CO)C(C)C)cc1N(C)C | -4.66%
71 | CCCS(=O)(=O)N1CCN(c2ccnc(N3CCCCC3)n2)CC1 | -8.56%
72 | Cc1nc(NC(=O)NC2CC(=O)N(C)C2)nn1C(C)C (stereo not drawn) | 2.26%
73 | Cc1cc(C)c(CNC(=O)NCC2CCCO2)c(=O)[nH]1 (stereo not drawn) | 26.7%
74 | O=C(O)c1cc(S(=O)(=O)Nc2ccc(F)c(Cl)c2)cc2c1OCCO2 | 3.36%
75 | CCOc1ccc(C(=O)N2C[C@H]3CC[C@@H]2CN(C)C3)cc1OCC | -14.6%
76 | CC1CN(C(=O)c2cc(=O)[nH]c3ccc(F)cc23)CCO1 (stereo not drawn) | 19.1%
77 | CN(C)C(=O)[C@@H]1CCO[C@@H]2CCN(Cc3ccc4c(c3)OCO4)C[C@@H]21 | -21.3%
78 | CC(C(=O)NCCN1CCN(C)CC1)n1cncn1 (stereo not drawn) | -7.19%
79 | COCCn1nc(C(=O)N2CCN(C)CC2C)ccc1=O (stereo not drawn) | -4.08%
80 | CNS(=O)(=O)Cc1ccc(CNc2ccc(C#N)cn2)cc1 | -6.5%
81 | Cc1ccc(CN2CCC3(CC2)CCN(C(=O)c2cccn2C)C3)cc1 | -3.29%
82 | O=S1(=O)C[C@@H]2[C@H](C1)N(Cc1ncc[nH]1)CCN2CC1CC1 | -5.56%
83 | CCC[C@H]1CN(C(=O)CCn2ccccc2=O)C[C@@H]1NS(C)(=O)=O | -16.2%
84 | Cn1cc2c(n1)C(CNC1CCOCC1)OCC2 (stereo not drawn) | -5.41%
85 | Cc1cc(N)nc(C2(C)CCCN2C(=O)c2cnccn2)n1 (stereo not drawn) | 4.65%
86 | COC(=O)c1ccc(C(=O)NCc2ccc(Br)cc2)cn1 | -2.31%
87 | Cc1nnc(C(C)N2CCN(Cc3ccc(C#N)cc3)CC2)o1 (stereo not drawn) | -6.02%
88 | O=C1C[C@H]2CC[C@@H](CN1)N2C(=O)Cc1ccsc1 | -8.54%
89 | Cc1noc(C2CCN(C(=O)CCNS(C)(=O)=O)CC2)n1 | -17.2%
90 | Cn1cc(C(=O)O)c(-c2ccc(F)cc2F)n1 | -4.16%
91 | CN(Cc1nc(-c2cccnc2)no1)C(=O)c1c2c(nn1C)CCCC2 | -1.52%
92 | Clc1ccc2cccnc2c1CN1CCCC1Cn1cncn1 (stereo not drawn) | -17.7%

Row | SMILES | cytotoxicity at 70.5 h
93 | CN1CCC2(CCCN(S(=O)(=O)c3ccc(-c4cnco4)s3)C2)C1 (stereo not drawn) | -6.76%
94 | CN(C)C(=O)CN1CCN(C(=O)Cc2csc(-c3ncccn3)n2)CC1 | -4.31%
95 | Cn1cc(S(=O)(=O)NCCc2ccsc2)cn1 | -6.26%
96 | CC(C)c1cc(NC(=O)c2ccc([S+]([O-])C(C)C)cc2)[nH]n1 (stereo not drawn) | -3.24%
97 | Cc1noc(CN(Cc2ccco2)Cc2cccc3c2OCO3)n1 | -1.63%
98 | CCOCC(=O)N1CCCC2(CCN(c3ccccc3)C2=O)C1 (stereo not drawn) | -8.08%
99 | O=C(c1cnccn1)N1CC2(CCN(Cc3ccsc3)C2)C1 | -4.05%
100 | O=C(Nc1ccc(-n2cncn2)nc1)N(CC1CCOC1)C1CC1 (stereo not drawn) | -1.97%
101 | CN1CC2(CCNCC2)CC1C(=O)NCCCNc1cccnc1 (stereo not drawn) | 17.1%
102 | O=C(c1ccoc1)N1C[C@H]2CC[C@@]3(N=C(c4ccccc4)NC3=O)[C@H]2C1 | 0.375%
103 | c1ccc(-c2nnc(CN3CCCC3Cn3cncn3)o2)cc1 (stereo not drawn) | -0.362%
104 | CCOC(=O)c1cnn(-c2cc(Oc3cccc(C)c3)ncn2)c1N | -0.773%
105 | O=C(NC1CC1)[C@@H]1CCO[C@@H]2CCN(CC3CCC3)C[C@H]21 | -2.8%
106 | CCCOCC(=O)N1CCCC(c2nnc(CN3CCCCC3)n2C)C1 (stereo not drawn) | 9.63%
107 | CNc1cncc(C2CCCN2C(=O)CCn2ccnc2C(C)C)n1 (stereo not drawn) | -3%
108 | CCS(=O)(=O)Nc1ccc2c(c1)C1(CCOCC1)CN2C | -1.55%
109 | NC(=O)NC1(C(=O)N2CCc3c(Cl)cccc3C2)CCCCC1 | 8.62%
110 | Cc1c(NCC(C)(C)C)cccc1C(=O)NCc1ncnn1C | 14.6%
111 | COCCN1CCO[C@@H]2CN(C(=O)c3ccc4[nH]ccc4c3)CC[C@@H]2C1 | -11.1%
112 | CCCc1nnsc1C(=O)NCC1CCN(S(C)(=O)=O)CC1 | -4%
113 | O=C1CC[C@]2(CC[C@@H](NCc3ccc4c(c3)OCO4)CC2)N1 | 19.9%
